compound: Cn1nnc2c(C(N)=O)ncn2c1=O [Temozolomide] + CC1(C)CCC(c2ccc(Cl)cc2)=C(CN2CCN(c3ccc(C(=O)NS(=O)(=O)c4ccc(N[C@H](CCN5CCOCC5)CSc5ccccc5)c(S(=O)(=O)C(F)(F)F)c4)cc3)CC2)C1 [Navitoclax] (partner 0.5 µM); assay: relative viability (nuclei count vs DMSO), 5 days (fraction); higher = more cells survive; conditions: first compound 0.2 µM
In short: (§1)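 After 5 days of treatment, lung cancer cells in 1536-well plates were fixed and stained in a single step (final 0.05% Triton X-100, 1% formaldehyde, 1 ug/ml Hoechst) and their nuclei counted on 4× images. Treatment had been applied by pin tool the day after seeding as one drug alone or as a fixed anchor-drug dose with five library-drug doses (not always all listed) in √10 steps. Relative viability is the nuclei count of treated wells divided by that of vehicle wells, and values are medians of duplicate plates.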

Cell Line	relative viability
201T	1.17
A549	1.07
A-427	0.971
BEN	0.0644
CAL-12T	1.35
COR-L23	1.2
COR-L 105	0.819
Calu-6	0.927
ChaGo-K-1	1.11
EBC-1	0.512
EKVX	0.856
EMC-BAC-2	1.07
EPLC-272H	1.15
HARA	1.19
HCC-15	0.746
HCC-44	0.972
HCC-78	0.48
HCC-366	1.07
HCC-827	1.07
HOP-62	1.05
IA-LM	0.832
NCI-H727	0.409
NCI-H1299	1.04
NCI-H1792	0.852

same assay, conditions: first compound 0.6325 µM

Cell Line	relative viability
201T	1.18
A549	1.34
A-427	0.923
BEN	0.0697
CAL-12T	1.13
COR-L23	0.933
COR-L 105	0.866
Calu-6	0.804
ChaGo-K-1	1.16
EBC-1	0.41
EKVX	0.962
EMC-BAC-2	1.24
EPLC-272H	1.01
H3255	0.523
HARA	1.17
HCC-15	0.731
HCC-44	1.02
HCC-78	0.738
HCC-366	1.18
HCC-827	1.07
HOP-62	1
IA-LM	0.69
NCI-H727	0.428
NCI-H1299	1.09
NCI-H1792	0.773

same assay, conditions: first compound 2 µM

Cell Line	relative viability
201T	1.21
A549	1.25
A-427	0.949
BEN	0.0579
CAL-12T	1.21
COR-L23	1.02
COR-L 105	0.996
Calu-6	0.942
ChaGo-K-1	1.45
EBC-1	0.358
EKVX	0.902
EMC-BAC-2	1.16
EPLC-272H	1.12
H3255	0.469
HARA	1.24
HCC-15	0.805
HCC-44	0.913
HCC-78	0.953
HCC-366	1.14
HCC-827	0.992
HOP-62	1.13
IA-LM	0.836
NCI-H727	0.496
NCI-H1299	1.06
NCI-H1792	0.655

same assay, conditions: first compound 6.325 µM

Cell Line	relative viability
201T	1.2
A549	1.23
A-427	0.596
BEN	0.0678
CAL-12T	1.29
COR-L23	0.976
COR-L 105	0.858
Calu-6	0.82
ChaGo-K-1	0.968
EBC-1	0.384
EKVX	0.976
EMC-BAC-2	1.2
EPLC-272H	0.996
H3255	0.485
HARA	1.13
HCC-15	0.687
HCC-44	0.966
HCC-78	0.836
HCC-366	1.17
HCC-827	0.984
HOP-62	0.941
IA-LM	0.825
NCI-H727	0.469
NCI-H1299	1.01
NCI-H1792	0.577

same assay, conditions: first compound 20 µM

Cell Line	relative viability
201T	1.22
A549	1.24
A-427	0.592
BEN	0.0653
CAL-12T	1.26
COR-L23	0.938
COR-L 105	0.649
Calu-6	0.781
ChaGo-K-1	0.964
EBC-1	0.404
EKVX	0.597
EMC-BAC-2	1.2
EPLC-272H	0.879
H3255	0.0789
HARA	1.2
HCC-15	0.689
HCC-44	0.983
HCC-78	0.793
HCC-366	0.918
HCC-827	0.129
HOP-62	1.14
IA-LM	0.615
NCI-H727	0.324
NCI-H1299	1.08
NCI-H1792	0.616

compound: Cn1nnc2c(C(N)=O)ncn2c1=O [Temozolomide] + COc1cc2c(Oc3ccc(NC(=O)C4(C(=O)Nc5ccc(F)cc5)CC4)cc3F)ccnc2cc1OCCCN1CCOCC1 [Foretinib] (partner 0.25 µM); assay: as above; conditions: first compound 0.2 µM
In short: as §1

Cell Line	relative viability
201T	0.901
A549	1.02
A-427	0.992
ABC-1	1.06
BEN	0.734
CAL-12T	1.13
COR-L23	1.12
COR-L 105	1.17
Calu-6	0.886
ChaGo-K-1	0.993
EBC-1	0.11
EKVX	0.485
EMC-BAC-2	0.947
EPLC-272H	0.537
HARA	0.8
HCC-15	1.15
HCC-78	0.487
HCC-366	0.941
HCC-827	1.14
HOP-62	1.33
IA-LM	1.35
LCLC-103H	0.834
NCI-H358	0.477
NCI-H650	0.898
NCI-H661	0.941
NCI-H727	0.835
NCI-H1299	1.15
NCI-H1563	0.762
NCI-H2342	0.793
SW 900	0.924

same assay, conditions: first compound 0.6325 µM

Cell Line	relative viability
201T	1.2
A549	0.996
A-427	0.981
ABC-1	0.96
BEN	0.651
CAL-12T	1.09
COR-L23	1.06
COR-L 105	1.29
Calu-6	0.843
ChaGo-K-1	0.886
EBC-1	0.1
EKVX	0.799
EMC-BAC-2	1.07
EPLC-272H	0.697
H3255	0.845
HARA	0.991

Cell Line	relative viability
HCC-15	1.04
HCC-78	0.547
HCC-366	0.94
HCC-827	1.01
HOP-62	1.08
IA-LM	1.23
LCLC-103H	0.787
NCI-H358	0.707
NCI-H650	0.991
NCI-H661	1.01
NCI-H727	0.791
NCI-H1299	1.12
NCI-H1563	0.967
NCI-H1623	0.854
NCI-H2342	1
SW 900	1.2

same assay, conditions: first compound 2 µM

Cell Line	relative viability
201T	1.14
A549	0.998
A-427	1.03
ABC-1	1.21
BEN	0.803
CAL-12T	1.15
COR-L23	1.01
COR-L 105	1.18
Calu-6	0.941
ChaGo-K-1	0.992
EBC-1	0.0982
EKVX	0.748
EMC-BAC-2	1.02
EPLC-272H	0.628
H3255	1.03
HARA	1.05

Cell Line	relative viability
HCC-15	1.06
HCC-78	0.616
HCC-366	0.947
HCC-827	0.994
HOP-62	1.14
IA-LM	1.19
LCLC-103H	0.895
NCI-H358	0.614
NCI-H650	1.06
NCI-H661	1.05
NCI-H727	0.99
NCI-H1299	1.09
NCI-H1563	0.886
NCI-H1623	0.827
NCI-H2342	1.04
SW 900	0.955

same assay, conditions: first compound 6.325 µM

Cell Line	relative viability
201T	1.08
A549	1.01
A-427	0.66
ABC-1	1.07
BEN	0.517
CAL-12T	1.05
COR-L23	0.961
COR-L 105	0.51
Calu-6	0.811
ChaGo-K-1	0.98
EBC-1	0.111
EKVX	0.722
EMC-BAC-2	0.998
EPLC-272H	0.712
H3255	0.507
HARA	0.671

Cell Line	relative viability
HCC-15	0.969
HCC-78	0.551
HCC-366	0.932
HCC-827	0.894
HOP-62	1.1
IA-LM	1.03
LCLC-103H	0.73
NCI-H358	0.657
NCI-H650	1
NCI-H661	0.955
NCI-H727	0.705
NCI-H1299	1.1
NCI-H1563	0.915
NCI-H1623	0.822
NCI-H2342	1.02
SW 900	0.732

same assay, conditions: first compound 20 µM

Cell Line	relative viability
201T	1.03
A549	0.769
A-427	0.486
ABC-1	1.11
BEN	0.428
CAL-12T	1.13
COR-L23	0.911
COR-L 105	1.11
